Earlier results on one molecule are cited in patent publication US7964610B2, “Buprenorphine derivatives and uses thereof” (Reckitt Benckiser Healthcare (UK) Limited, priority 2006, dated 2011).

Regarding `CO[C@]12CCC3(C[C@@H]1[C@](C)(O)C(C)(C)C)[C@H]1Cc4ccc(O)c5c4[C@@]3(CCN1CC1CC1)[C@H]2O5` [buprenorphine], under “oral (swallowed)”, the “bioavailability when taken orally” value is reported as approximately 5%. Also, where the note is “sublingual”, the “bioavailability when absorbed sublingually” value is “approximately fifty”.
